{"source": "paper PMC8766756", "about": "“Insights on Cancer Cell Inhibition, Subcellular Activities, and Kinase Profile of Phenylacetamides Pending 1H-Imidazol-5-One Variants” (Frontiers in Pharmacology, 2022)", "key": {"[1]": {"biological_target": "T1, Lmr1 (Q6ZMQ8) (Homo sapiens, UniProt Q6ZMQ8)", "T1 construct": "purchased PamGene (PamChip PTK array, Upstream Kinase Analysis)", "T1 sequence (Q6ZMQ8 1-1374)": "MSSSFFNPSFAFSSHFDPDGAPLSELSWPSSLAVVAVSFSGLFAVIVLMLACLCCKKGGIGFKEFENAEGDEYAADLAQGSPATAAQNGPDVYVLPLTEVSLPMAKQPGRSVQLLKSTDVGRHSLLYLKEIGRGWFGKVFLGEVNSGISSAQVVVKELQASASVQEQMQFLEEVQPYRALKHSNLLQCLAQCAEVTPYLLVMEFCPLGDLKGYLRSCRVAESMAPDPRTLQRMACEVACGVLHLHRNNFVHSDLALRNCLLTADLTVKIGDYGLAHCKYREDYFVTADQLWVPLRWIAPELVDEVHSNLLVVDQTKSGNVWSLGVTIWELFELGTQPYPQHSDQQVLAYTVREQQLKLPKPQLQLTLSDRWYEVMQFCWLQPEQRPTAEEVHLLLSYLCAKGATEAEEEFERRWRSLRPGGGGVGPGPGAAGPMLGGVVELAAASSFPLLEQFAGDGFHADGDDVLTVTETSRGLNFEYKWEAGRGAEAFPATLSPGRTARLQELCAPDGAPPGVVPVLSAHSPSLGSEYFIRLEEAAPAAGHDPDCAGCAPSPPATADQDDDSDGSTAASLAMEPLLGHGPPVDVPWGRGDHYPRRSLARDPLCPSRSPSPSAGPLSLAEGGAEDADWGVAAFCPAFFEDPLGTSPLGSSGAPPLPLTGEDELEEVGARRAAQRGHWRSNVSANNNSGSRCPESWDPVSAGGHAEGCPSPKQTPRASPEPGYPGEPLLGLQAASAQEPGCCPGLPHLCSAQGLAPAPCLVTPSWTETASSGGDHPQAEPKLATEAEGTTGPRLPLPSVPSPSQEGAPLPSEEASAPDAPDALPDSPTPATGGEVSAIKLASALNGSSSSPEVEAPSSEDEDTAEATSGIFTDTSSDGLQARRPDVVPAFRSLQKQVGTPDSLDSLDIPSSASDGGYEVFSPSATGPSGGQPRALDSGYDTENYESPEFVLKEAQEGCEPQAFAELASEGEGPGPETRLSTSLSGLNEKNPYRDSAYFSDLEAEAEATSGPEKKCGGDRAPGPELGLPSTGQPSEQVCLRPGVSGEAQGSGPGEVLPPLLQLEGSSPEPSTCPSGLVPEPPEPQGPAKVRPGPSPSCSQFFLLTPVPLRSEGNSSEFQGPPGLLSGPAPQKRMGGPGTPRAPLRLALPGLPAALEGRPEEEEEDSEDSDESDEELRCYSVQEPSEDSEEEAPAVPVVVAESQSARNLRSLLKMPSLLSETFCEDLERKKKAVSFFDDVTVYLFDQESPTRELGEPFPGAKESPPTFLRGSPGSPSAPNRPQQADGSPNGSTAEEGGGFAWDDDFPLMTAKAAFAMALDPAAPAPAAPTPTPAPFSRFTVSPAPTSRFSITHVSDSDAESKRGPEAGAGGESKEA", "assay": "PamChip tyrosine kinase microarray", "type": "biochemical", "settings": "0.1 µM, HL60 lysate", "how_it_was_run": "(§1)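 HL60 (AML) cell lysate was spiked with compound at 0.001, 0.01, 0.1, 1, 10 and 50 µM, or 2% v/v DMSO as control, then profiled in technical replicates on a tyrosine kinase peptide array of 196 phosphosites. Kinase activity was inferred from peptide-set changes using an upstream kinase tool.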"}, "[2]": {"biological_target": "T2, IGF1R (P08069) (Homo sapiens, UniProt P08069)", "T2 construct": "purchased PamGene (PamChip PTK array, Upstream Kinase Analysis)", "T2 sequence (P08069 31-1367)": "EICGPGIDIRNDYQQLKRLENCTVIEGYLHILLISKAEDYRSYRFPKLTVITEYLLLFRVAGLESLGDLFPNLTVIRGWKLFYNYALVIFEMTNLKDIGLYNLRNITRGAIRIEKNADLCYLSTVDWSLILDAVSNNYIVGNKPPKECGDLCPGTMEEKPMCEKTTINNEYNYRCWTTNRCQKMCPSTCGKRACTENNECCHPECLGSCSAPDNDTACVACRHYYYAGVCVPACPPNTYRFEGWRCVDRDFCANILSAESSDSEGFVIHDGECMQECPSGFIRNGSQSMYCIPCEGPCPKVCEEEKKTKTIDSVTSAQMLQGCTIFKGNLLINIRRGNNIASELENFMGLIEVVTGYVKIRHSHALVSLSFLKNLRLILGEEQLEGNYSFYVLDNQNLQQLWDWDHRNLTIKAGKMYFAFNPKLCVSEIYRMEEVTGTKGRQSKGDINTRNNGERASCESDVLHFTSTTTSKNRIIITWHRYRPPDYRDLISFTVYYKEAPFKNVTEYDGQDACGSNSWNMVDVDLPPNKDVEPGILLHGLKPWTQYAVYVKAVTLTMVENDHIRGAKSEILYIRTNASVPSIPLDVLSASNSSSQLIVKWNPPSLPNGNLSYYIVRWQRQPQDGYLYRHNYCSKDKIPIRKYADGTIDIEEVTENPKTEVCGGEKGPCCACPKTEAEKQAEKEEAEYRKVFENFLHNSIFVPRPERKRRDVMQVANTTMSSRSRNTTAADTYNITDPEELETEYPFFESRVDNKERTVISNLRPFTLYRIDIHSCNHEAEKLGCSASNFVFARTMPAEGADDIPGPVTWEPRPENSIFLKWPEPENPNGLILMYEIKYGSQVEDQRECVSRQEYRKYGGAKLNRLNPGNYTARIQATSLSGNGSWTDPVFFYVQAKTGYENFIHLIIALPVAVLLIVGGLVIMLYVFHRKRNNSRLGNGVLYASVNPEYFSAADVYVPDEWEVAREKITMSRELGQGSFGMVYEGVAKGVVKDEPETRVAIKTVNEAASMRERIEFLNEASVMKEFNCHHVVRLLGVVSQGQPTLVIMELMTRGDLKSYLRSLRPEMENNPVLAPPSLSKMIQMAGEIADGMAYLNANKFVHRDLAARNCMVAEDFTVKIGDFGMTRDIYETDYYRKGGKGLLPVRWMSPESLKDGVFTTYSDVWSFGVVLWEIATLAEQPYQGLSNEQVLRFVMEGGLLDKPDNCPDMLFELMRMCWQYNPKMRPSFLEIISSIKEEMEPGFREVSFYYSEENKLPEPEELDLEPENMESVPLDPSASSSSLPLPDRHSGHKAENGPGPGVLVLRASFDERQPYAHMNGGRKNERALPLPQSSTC", "assay": "PamChip tyrosine kinase microarray", "type": "biochemical", "settings": "0.1 µM, HL60 lysate", "how_it_was_run": "as §1"}}}
{"smiles": "COc1ccc(/C=C2\\N=C(C)N(c3ccc(CC(=O)NCc4ccccc4)cc3)C2=O)cc1", "note": "[Compound 4c, (Z)-N-Benzyl-2-(4-(4-(4-methoxybenzylidene)-2-methyl-5-oxo-4,5-dihydro-1H-imidazol-1-yl)phenyl)acetamide]", "values": [{"measurement": "Mean Final score (Kinase score)", "setting": "[1]", "result": 2.52}, {"measurement": "Mean Kinase Statistic", "setting": "[1]", "result": -1.33}, {"measurement": "Mean Significance Score", "setting": "[1]", "result": 1.989}, {"measurement": "Mean Specificity Score", "setting": "[1]", "result": 0.4793}, {"measurement": "Mean Final score (Kinase score)", "setting": "[2]", "result": 2.173}, {"measurement": "Mean Kinase Statistic", "setting": "[2]", "result": -1.034}, {"measurement": "Mean Significance Score", "setting": "[2]", "result": 2.048}, {"measurement": "Mean Specificity Score", "setting": "[2]", "result": 0.1033}]}
